Experimental data: the NIST ThermoML archive (doi:10.1016/j.jct.2016.10.042)

Assay: xn = mol fraction of the nth substance listed
Conditions: 101 kPa, Liquid, Pycnometric method

C=CC(=O)OCC [ethyl propenoate] + C1CCOC1
mass density [kg/m3]
Conditions | 293.15 K | 298.15 K | 303.15 K | 308.15 K | 313.15 K | 318.15 K
x2 = 0 | 921.76 | 915.95 | 910.14 | 904.33 | 898.52 | 892.71
x2 = 0.0825 | 920.35 | 914.64 | 908.93 | 903.22 | 897.5 | 891.78
x2 = 0.167 | 918.74 | 913.11 | 907.48 | 901.85 | 896.22 | 890.59
x2 = 0.2302 | 917.35 | 911.79 | 906.23 | 900.67 | 895.1 | 889.53
x2 = 0.316 | 915.21 | 909.73 | 904.25 | 898.77 | 893.29 | 887.81
x2 = 0.3892 | 913.14 | 907.73 | 902.32 | 896.91 | 891.5 | 886.09
x2 = 0.4603 | 910.93 | 905.58 | 900.23 | 894.88 | 889.53 | 884.18
x2 = 0.5286 | 908.61 | 903.32 | 898.03 | 892.74 | 887.45 | 882.16
x2 = 0.5947 | 906.16 | 900.93 | 895.7 | 890.47 | 885.24 | 880
x2 = 0.6605 | 903.54 | 898.36 | 893.18 | 888 | 882.82 | 877.64
x2 = 0.7283 | 900.64 | 895.52 | 890.4 | 885.28 | 880.16 | 875.04
x2 = 0.7874 | 897.95 | 892.88 | 887.81 | 882.74 | 877.67 | 872.6
x2 = 0.8689 | 894 | 888.98 | 883.96 | 878.94 | 873.92 | 868.9
x2 = 0.936 | 890.52 | 885.53 | 880.54 | 875.55 | 870.56 | 865.57

C=CC(=O)OC(C)(C)C [tert-butyl acrylate] + C1CCOC1
mass density [kg/m3]
Conditions | 293.15 K | 298.15 K | 303.15 K | 308.15 K | 313.15 K | 318.15 K
x2 = 0 | 884.13 | 879.66 | 875.2 | 870.74 | 866.28 | 861.82
x2 = 0.0736 | 884.47 | 880.01 | 875.55 | 871.08 | 866.61 | 862.14
x2 = 0.1489 | 884.84 | 880.36 | 875.88 | 871.4 | 866.92 | 862.44
x2 = 0.2121 | 885.14 | 880.65 | 876.16 | 871.67 | 867.17 | 862.67
x2 = 0.2773 | 885.43 | 880.92 | 876.41 | 871.9 | 867.39 | 862.88
x2 = 0.362 | 885.78 | 881.25 | 876.71 | 872.17 | 867.63 | 863.09
x2 = 0.4382 | 886.06 | 881.5 | 876.94 | 872.37 | 867.8 | 863.23
x2 = 0.5024 | 886.28 | 881.69 | 877.1 | 872.5 | 867.9 | 863.3
x2 = 0.5815 | 886.5 | 881.87 | 877.24 | 872.61 | 867.98 | 863.35
x2 = 0.6532 | 886.66 | 882 | 877.34 | 872.67 | 868 | 863.33
x2 = 0.7268 | 886.79 | 882.08 | 877.37 | 872.66 | 867.95 | 863.24
x2 = 0.7921 | 886.88 | 882.13 | 877.38 | 872.62 | 867.86 | 863.1
x2 = 0.8698 | 886.97 | 882.15 | 877.33 | 872.51 | 867.69 | 862.86
x2 = 0.9352 | 887 | 882.12 | 877.24 | 872.36 | 867.48 | 862.59

C=CC(=O)OCCCC [butyl 2-propenoate] + C1CCOC1
mass density [kg/m3]
Conditions | 293.15 K | 298.15 K | 303.15 K | 308.15 K | 313.15 K | 318.15 K
x2 = 0 | 898.85 | 894.1 | 889.35 | 884.6 | 879.85 | 875.1
x2 = 0.0712 | 898.62 | 893.89 | 889.16 | 884.42 | 879.68 | 874.94
x2 = 0.1406 | 898.39 | 893.66 | 888.93 | 884.19 | 879.45 | 874.71
x2 = 0.208 | 898.1 | 893.37 | 888.64 | 883.91 | 879.17 | 874.43
x2 = 0.2779 | 897.74 | 893.01 | 888.27 | 883.53 | 878.79 | 874.05
x2 = 0.3685 | 897.14 | 892.4 | 887.66 | 882.91 | 878.16 | 873.41
x2 = 0.4339 | 896.6 | 891.85 | 887.1 | 882.35 | 877.59 | 872.83
x2 = 0.4996 | 895.97 | 891.21 | 886.45 | 881.69 | 876.92 | 872.15
x2 = 0.5642 | 895.25 | 890.48 | 885.71 | 880.93 | 876.15 | 871.37
x2 = 0.6426 | 894.22 | 889.43 | 884.64 | 879.85 | 875.05 | 870.25
x2 = 0.7208 | 893.03 | 888.22 | 883.41 | 878.59 | 873.77 | 868.95
x2 = 0.7956 | 891.72 | 886.88 | 882.04 | 877.2 | 872.36 | 867.51
x2 = 0.8642 | 890.32 | 885.45 | 880.58 | 875.71 | 870.84 | 865.97
x2 = 0.9322 | 888.76 | 883.86 | 878.96 | 874.05 | 869.14 | 864.23

C=CC(=O)OC [methyl propenoate] + C1CCOC1
mass density [kg/m3]
Conditions | 293.15 K | 298.15 K | 303.15 K | 308.15 K | 313.15 K | 318.15 K
x2 = 0 | 953.51 | 947.56 | 941.61 | 935.66 | 929.71 | 923.76
x2 = 0.0773 | 950.05 | 944.24 | 938.43 | 932.62 | 926.81 | 921
x2 = 0.1554 | 946.35 | 940.67 | 934.99 | 929.31 | 923.63 | 917.95
x2 = 0.2064 | 943.74 | 938.15 | 932.56 | 926.97 | 921.37 | 915.77
x2 = 0.2545 | 941.15 | 935.63 | 930.11 | 924.58 | 919.05 | 913.52
x2 = 0.3215 | 937.33 | 931.89 | 926.45 | 921 | 915.55 | 910.1
x2 = 0.3989 | 932.62 | 927.26 | 921.9 | 916.54 | 911.17 | 905.8
x2 = 0.4655 | 928.35 | 923.06 | 917.77 | 912.47 | 907.17 | 901.87
x2 = 0.53 | 924.03 | 918.8 | 913.57 | 908.33 | 903.09 | 897.85
x2 = 0.6023 | 918.98 | 913.81 | 908.64 | 903.47 | 898.3 | 893.13
x2 = 0.6834 | 913.02 | 907.92 | 902.82 | 897.72 | 892.62 | 887.52
x2 = 0.7632 | 906.87 | 901.83 | 896.79 | 891.75 | 886.7 | 881.65
x2 = 0.8468 | 900.16 | 895.17 | 890.18 | 885.19 | 880.19 | 875.19
x2 = 0.9316 | 893 | 888.04 | 883.08 | 878.12 | 873.16 | 868.2
